Measurements: patent publication US20140105829A1, “THERAPEUTIC NANOEMULSION FORMULATION FOR THE TARGETED DELIVERY OF DOCETAXEL AND METHODS OF MAKING AND USING THE SAME” (Nemucore Medical Innovations, Inc., priority 2012, published 2014)
Values belong to the compound of their own block, whether it stands above or below them.

Key:
[1] = test system: subcutaneous SKOV3 tumors; design: species or system Nu/Nu mice; details: mouse, in vivo, iv
Description: Three female Nu/Nu mice (Charles River Laboratories, Cambridge, Mass.) each weighing approximately 20 g and bearing subcutaneous SKOV3 tumors (human ovary cancer cells, American Type Culture Collection (ATCC), Manassas, Va.) […], were used as test subjects. The first mouse was intravenously injected with gadopentetic acid containing a 0.072 mmol/kg dose of Gd-DTPA-PE (Magnevist™). The second mouse was intravenously injected with a non-targeted Gd-labeled nanoemulsion formulation of the present disclosure containing a 0.072 mmol/kg dose of Gd-DTPA-PE. The third mouse was intravenously injected with a folate receptor-targeted Gd-labeled nanoemulsion formulation of the present disclosure containing a 0.072 mmol/kg dose of the gadolinium-based MRI contrasting agent Gd-DTPA-PE. All three mice were full body scanned and imaged using a Bruker Biospec 20/70 MRI machine over a period of 24 hr.

[2] = Dose range finding plasma pharmacokinetic study; type: in vivo; details: CD-1 mice, iv; for AUC0-∞ / AUClast / Cl / Cmax / MRT / Tmax / Vd / t1/2: plasma docetaxel
Method: A dose range finding (DRF) study was conducted to determine the pharmacokinetic profile of folate receptor-targeted nanoemulsion formulations according to the disclosure administered to CD-1 mice at dose levels ranging from 1 mg/kg to 10 mg/kg. […] Blood was collected at 5 min, 30 min, 1 hr, 2 hr, 4 hr, 6 hr, 8 hr, 12 hr, and 24 hr after injection. Docetaxel concentration in the plasma was measured using a liquid chromatography-mass spectrometer (LC-MS/MS).
Pharmacokinetic parameters were calculated by non-compartmental analysis using Phoenix WinNonlin 6.2 version.

[3] = test system: SKOV3 cells; assay: MTT cytotoxicity assay, SKOV3; type: cell-based, human; details: 72 hr treatment, mean±SD, n=8
Method: (§1) A tetrazolium (MTT) assay was performed, which measures the activity of cellular enzymes that reduces the MTT dye to insoluble formazan. SKOV3 and SKOV3TR cells were treated with corresponding test nanoemulsions or control solutions as indicated below in Table V. Polyethylenimine at 50 μg/ml was used as a positive control for cytotoxicity. […] After the completion of treatment, cells were incubated with MTT reagent (50 μg/well) for 2 hr, the resulting formazan crystals were dissolved in dimethyl sulfoxide ([…]) and measured at 570 nm in the Plate reader (Synergy HT, Biotek Instruments, Winooski, Vt.).
(§2) All IC50 values were obtained by analyzing the MTT assays results using Graphpad Prism 5 scientific data analysis software.

[4] = test system: SKOV3TR cells; assay: MTT cytotoxicity assay, SKOV3TR; type: cell-based, human; details: 72 hr treatment, mean±SD, n=8, Pgp-expressing multidrug resistant cells
Method: In order to determine if the nanoemulsion formulations according to the disclosure produce a cytotoxic effect, the following experiments were done on SKOV3 and SKOV3TR cells. SKOV3TR cells express P-glycoprotein (Pgp), which produces chemotherapeutic agent efflux out of the cell and is associated with multidrug resistant cancer cells.
as §1, §2

[5] = 1 mg/kg docetaxel as folate receptor-targeted nanoemulsion formulation
[6] = 5 mg/kg docetaxel as folate receptor-targeted nanoemulsion formulation
[7] = 10 mg/kg docetaxel as folate receptor-targeted nanoemulsion formulation

time by which tumor signal cleared to near baseline [1]: ≤ 6 h
Compound: CNC[C@H](O)[C@@H](O)[C@H](O)[C@H](O)CO.CNC[C@H](O)[C@@H](O)[C@H](O)[C@H](O)CO.O=C([O-])CN(CCN(CC(=O)[O-])CC(=O)O)CCN(CC(=O)[O-])CC(=O)O.[Gd+3] [Magnevist, gadopentetic acid]

Compound: docetaxel [Docetaxel in solution]
AUC0-∞ [2, 5]: 475 ± 34 ng·h/mL | AUClast [2, 5]: 789 ± 667 ng·h/mL | Cl [2, 5]: 2110 ± 153 mL/h/kg | Cmax [2, 5]: 2125 ± 1181 ng/mL | MRT [2, 5]: 1.53 ± 0.3 h | Tmax [2, 5]: 4.98 min | Vd [2, 5]: 13275 ± 7029 mL/kg | t1/2 [2, 5]: 4.29 ± 2 h | dose dependence of plasma docetaxel pharmacokinetics ([2]; 1 mg/kg to 10 mg/kg, folate receptor-targeted nanoemulsion formulation): linear pharmacokinetics from 1 mg/kg to 5 mg/kg | AUC0-∞ [2, 6]: 19095 ± 24050 ng·h/mL | AUClast [2, 6]: 19026 ± 24077 ng·h/mL | Cl [2, 6]: 922 ± 1006 mL/h/kg | Cmax [2, 6]: 38267 ± 31757 ng/mL | MRT [2, 6]: 2.25 ± 0.5 h | Tmax [2, 6]: 4.98 min | Vd [2, 6]: 9074 ± 12083 mL/kg | t1/2 [2, 6]: 4.9 ± 2.6 h | AUC0-∞ [2, 7]: 16719 ± 28251 ng·h/mL | AUClast [2, 7]: 16653 ± 28251 ng·h/mL | Cl [2, 7]: 962 ± 752 mL/h/kg | Cmax [2, 7]: 52229 ± 28251 ng/mL | MRT [2, 7]: 2.6 ± 1 h | Tmax [2, 7]: 4.98 min | Vd [2, 7]: 5801 ± 5151 mL/kg | t1/2 [2, 7]: 3.7 ± 1 h | IC50 [3]: 1 ± 1.3 nM | IC50 [4]: 27000 nM
